# What was measured:
# [1] = Compound 2 solubility in solvents and buffers (saturated, 24 h shaking, HPLC); format: physicochemical; details: 50 mM phosphate buffer, aqueous buffer, thermodynamic from solid; pH 3 buffer (phosphate, 50 mM)
# [2] = HPMC vs gelatin capsules of amorphous Compound 2: potency, purity, water uptake after 1 week; format: physicochemical
# Description: Twenty capsules of both hydroxypropyl methylcellulose (HPMC, also known as Hypromellose) and gelatin were filled with 25±1 mg of amorphous Compound 2 to determine if the lower water content found in HPMC capsules would retard the water uptake of the compound. Samples of Compound 2 in both capsule types were placed at 25° C./60% RH and 40° C./75% RH for 1 week. The samples were analyzed for water content, potency, and % purity (% area) at t=0 and t=1 week.
# 20 transparent size 00 HPMC capsules and 20 transparent size 00 gelatin capsules were hand filled with API.
# Each capsules was filled with 25±1 mg of API.
# The two capsule types were both separated into two 30 cc HDPE bottles with caps and placed at both 25° C./60% RH and 40° C./75% RH for 1 week.
# For the t=0 time point, Compound 2 was analyzed for water content, potency, and % purity (% area).
# Two samples of Compound 2 were taken at t=0 for water content. The first sample was taken after the HPMC capsules had been filled and the second sample was taken after the gelatin capsules had been filled. This sampling procedure was done to offset the water uptake that took place while the capsules were being filled.
# 76.17 mg of Compound 2 was weighed directly into a 100-mL volumetric flask.
# The flask was diluted to volume with ACN and inverted to mix.
# A 1 mL aliquot was transferred directly into an HPLC vial for analysis.
# [3] = Bulk density, tap density, powder flow, particle size and milling feasibility of Compound 2; format: physicochemical; details: for Tap Density: Autotap 100 cycles
# Description: Compound 2 particle size distribution was determined by sieve screen analysis. A sample of Compound 2 was passed through a series of sieves, which included a 53, 106, 250, 500, 710, and 1000 μm mesh screen. Each screen was weighed before and after the sieving occurred to determine the amount of compound at each particle size.
# The powder flow was determined on a FlowDex apparatus.
# Bulk density was determined by filling a tared 100 mL graduated cylinder with Compound 2. The volume and weight of Compound 2 added was recorded and used to calculate its bulk density. Tap density was then determined by taking the same graduated cylinder filled with Compound 2 and placing it on an Autotap set for 100 cycles. The new powder volume was recorded and used to calculate the tap density.
# 24.73 mg of Compound 2 was weighed directly into a tared 25 mL volumetric flask. The flask was diluted to volume with ACN and inverted to mix. A sample was taken to determine the % purity (% area) of the drug before milling took place. Milling was performed by taking 17.92 g of Compound 2 and passing this material it through a conical mill with an 1143 μm screen. 14.33 g of Compound 2 was recovered and re-analyzed for particle size distribution, bulk density, and tap density. 24.93 mg of milled Compound 2 was weighed directly into a tared 25 mL volumetric flask. The flask was diluted to volume with ACN and inverted to mix. This sample was taken to determine the % purity (% area) after Compound 2 had been milled.
# After Compound 2 had been milled it was blended with 2.5% w/w of colloidal silicon dioxide, Cab-O-Sil®, on a T2 Turbula blender for 2 minutes. The blended powder was collected and its flow properties were analyzed on a FlowDex apparatus.
# [4] = Pharmacokinetics in male beagle dogs after a single oral dose (plasma Compound 1); details: dog, 10 mg/kg
# Description: The study was designed to compare the PK profiles of the following four forms of Compound 1 administered as single oral capsules in fasted state. […] There was a washout period of 4 days between dosing. The blood samples were collected from each animal at predetermined times on the study Days 1, 4, 8 and 11. The plasma was analyzed for Compound 1 by a validated HPLC-MS/MS assay.
# Descriptive PK parameters were determined by standard model independent methods (Gibaldi and Perrier, 1982) based on the individual plasma concentration-time data. Plasma concentrations were rounded to 3 significant figures. Plasma samples with concentrations below the quantifiable assay limit (BQL<2.00 ng/mL) were assigned values of zero for mean calculations. For PK calculations, BQL was set to zero from the pre-dose time up to the time of the first quantifiable concentration and thereafter was set as missing. Nominal time points were used for all calculations. • Cmax is the observed maximum plasma concentration after dosing. • Tmax is the time to reach Cmax. • T1/2 is apparent half-life calculated by ln(2)/λ where λ is the rate constant fix the log-linear portion of the terminal phase. A minimum of three values in the post-distribution phase of the plasma concentration-time curve is required for calculation of X. • AUC(0-T) is the area under the plasma concentration-time curve from time zero to the time of the last measurable plasma concentration determined using the linear trapezoidal rule. • AUC(0-inf) is the area under the plasma concentration-time curve from time zero to infinity. It is calculated by summing AUC(0-T) and the extrapolated area from the T to infinity.
# PK analyses were performed by noncompartmental analysis using model 200 in WinNonlin Professional 6.1 (Pharsight Corp., Mountain View, Calif.).
# [5] = Dissolution comparison of solid sodium salt forms in capsules; format: physicochemical
# Description: Dissolution of three forms of solid sodium salt were analyzed, a monosodium trihydrate (Compound 6), a monosodium salt dihydrate (Compound 7) and amorphous Compound 2.
# The crystalline material was made by exposing amorphous Compound 2 to ambient temperature/75% RH for 24 hrs. These conditions were created using a saturated sodium chloride solution sealed in a desiccant chamber. Once the crystalline material had been created it was collected and stored at 2-8° C. until dissolution testing took place. Two samples for dissolution were prepared by weighing 25 mg±1 mg into size 00 white opaque gelatin capsules.
# Crystalline Compound 7 dihydrate was made by placing a sample of the iso-propanol solvate of Compound 2 at ambient temperature and humidity conditions for 2 weeks. The iso-propanol solvate of Compound 2 readily converts to the dihydrate. Once Compound 7 had been prepared, it was collected and stored at 2-8° C. until dissolution testing was conducted. Two samples for dissolution were prepared by weighing 25 mg±1 mg into size 00 white opaque gelatin capsules.
# Two samples for dissolution were prepared by weighing 25 mg±1 mg of amorphous Compound 2 into size 00 white opaque gelatin capsules.
# The dissolution materials and parameters are set out in Table 33. At each pull time ˜6 mL of media was removed from each vessel and filtered through a 0.45 μm nylon filter. The first 5 mL of solution was discarded and the final 1 mL was collected in a UPLC vial for analysis.
# [6] = Gelatin Capsules, 25° C., t = 1 week
# [7] = Gelatin Capsules, 40° C., t = 1 week
# [8] = HPMC Capsules, 25° C., t = 1 week
# [9] = HPMC Capsules, 40° C., t = 1 week
# [10] = Table 42 summary, mean, dogs, single oral 10 mg/kg, plasma Compound 1
# [11] = dog 301, single oral 10 mg/kg dose, plasma Compound 1
# [12] = dog 302, single oral 10 mg/kg dose, plasma Compound 1
# [13] = dog 303, single oral 10 mg/kg dose, plasma Compound 1
# [14] = dog 304, single oral 10 mg/kg dose, plasma Compound 1
# [15] = mean of dogs, single oral 10 mg/kg dose, plasma Compound 1
smiles,measurement,setting,value
"COc1ccc2c(c1OCc1ccccc1)C[C@@H](C(=O)[O-])N(C(=O)C(c1ccccc1)c1ccccc1)C2.[Na+] [Compound 2, sodium salt of (S)-2-(diphenylacetyl)-1,2,3,4-tetrahydro-6-methoxy-5-(phenylmethoxy)-3-isoquinoline carboxylic acid]",solubility at 24 h,[1],< 1 µg/mL
same,% Potency,[2]; [6],90.1%
same,% a/a Purity,[2]; [6],98.95 % a/a
same,Δ% a/a Purity,[2]; [6],0.00 % a/a
same,% Potency,[2]; [7],90.8%
same,% a/a Purity,[2]; [7],98.88 % a/a
same,Δ% a/a Purity,[2]; [7],−0.07 % a/a
same,% Potency,[2]; [8],90.2%
same,% a/a Purity,[2]; [8],98.95 % a/a
same,Δ% a/a Purity,[2]; [8],0.00 % a/a
same,% Potency,[2]; [9],89.8%
same,% a/a Purity,[2]; [9],98.74 % a/a
same,Δ% a/a Purity,[2]; [9],−0.21 % a/a
same,% Potency,[2]; Sample t = 0,86.3%
same,% a/a Purity,[2]; Sample t = 0,98.95 % a/a
same,potency and % purity (% area) after 1 week,"[2]; all conditions tested (HPMC and gelatin capsules, 25° C./60% RH and 40° C./75% RH)",unchanged
same,slowing of the uptake of water by HPMC capsules relative to gelatin,"[2]; stored at 40° C./75% RH, 1 week",3.74%
same,average particle size,[3]; after milling,~560 μm
same,% Purity with milling,[3]; before vs after milling,% Purity of Compound 2 sample did not change with milling.
same,powder flow (FlowDex),[3]; bulk unmilled,"unable to pass through the largest available, 34 mm, orifice"
same,average particle size,"[3]; bulk, before milling",~775 μm
same,Bulk Density,"[3]; milled (conical mill, 1143 μm screen)",0.073 g/mL
same,Tap Density,[3]; milled,0.098 g/mL
same,powder flow (FlowDex),"[3]; milled, blended with 2.5% w/w colloidal silicon dioxide",passed through a 34 mm orifice but failed to pass through a 32 mm orifice
same,Bulk Density,[3]; unmilled,0.089 g/mL
same,Tap Density,[3]; unmilled,0.114 g/mL
same,AUC(0-t),[4]; [10],1840 ng·h/mL
same,AUC(0-t),[4]; [11],1290 ng·h/mL
same,AUC(0-t),[4]; [12],2350 ng·h/mL
same,AUC(0-t),[4]; [13],1520 ng·h/mL
same,AUC(0-t),[4]; [14],2180 ng·h/mL
same,AUC(0-t),[4]; [15],1830 ng·h/mL
same,AUC(0-inf),[4]; [10],1840 ng·h/mL
same,AUC(0-inf),[4]; [11],1300 ng·h/mL
same,AUC(0-inf),[4]; [12],2350 ng·h/mL
same,AUC(0-inf),[4]; [13],1520 ng·h/mL
same,AUC(0-inf),[4]; [14],2220 ng·h/mL
same,AUC(0-inf),[4]; [15],1840 ng·h/mL
same,Cmax,"[4]; Cmax, dog 301, single oral 10 mg/kg dose, plasma Compound 1",1110 ng/mL
same,Cmax,"[4]; Cmax, dog 302, single oral 10 mg/kg dose, plasma Compound 1",1220 ng/mL
same,Cmax,"[4]; Cmax, dog 303, single oral 10 mg/kg dose, plasma Compound 1",1750 ng/mL
same,Cmax,"[4]; Cmax, dog 304, single oral 10 mg/kg dose, plasma Compound 1",2270 ng/mL
same,Cmax,"[4]; Cmax, mean of dogs, single oral 10 mg/kg dose, plasma Compound 1",1590 ng/mL
same,half-life,"[4]; Mean harmonic T1/2, male beagle dogs, single oral 10 mg/kg capsule, fasted, Compound 1 in plasma",2.49 ± 0.391 h
same,half-life,"[4]; T1/2, Table 42 summary, harmonic mean, dogs, single oral 10 mg/kg, plasma Compound 1",2.49 h
same,half-life,"[4]; T1/2, dog 301, single oral 10 mg/kg dose, plasma Compound 1",2.51 h
same,half-life,"[4]; T1/2, dog 302, single oral 10 mg/kg dose, plasma Compound 1",2.73 h
same,half-life,"[4]; T1/2, dog 303, single oral 10 mg/kg dose, plasma Compound 1",2.05 h
same,half-life,"[4]; T1/2, dog 304, single oral 10 mg/kg dose, plasma Compound 1",2.81 h
same,half-life,"[4]; T1/2, harmonic mean of dogs, single oral 10 mg/kg dose, plasma Compound 1",2.49 h
same,Tmax,"[4]; Tmax, Table 42 summary, median, dogs, single oral 10 mg/kg, plasma Compound 1",0.75 h
same,Tmax,"[4]; Tmax, dog 301, single oral 10 mg/kg dose, plasma Compound 1",0.75 h
same,Tmax,"[4]; Tmax, dog 302, single oral 10 mg/kg dose, plasma Compound 1",1 h
same,Tmax,"[4]; Tmax, dog 303, single oral 10 mg/kg dose, plasma Compound 1",0.75 h
same,Tmax,"[4]; Tmax, dog 304, single oral 10 mg/kg dose, plasma Compound 1",0.5 h
same,Tmax,"[4]; Tmax, median of dogs (Mean column), single oral 10 mg/kg dose, plasma Compound 1",0.75 h
same,Cmax,"[4]; mean Cmax, male beagle dogs, single oral 10 mg/kg capsule, fasted, Compound 1 in plasma, mean±SD",1590 ± 534 ng/mL
same,Tmax,"[4]; median Tmax, male beagle dogs, single oral 10 mg/kg capsule, fasted, Compound 1 in plasma",0.75 h
same,% Dissolution,"[5]; 15 mins, 25 mg in gelatin capsule, pH 6.8 phosphate buffer 900 mL, 37° C., 50 RPM",77.8%
same,% Dissolution,"[5]; 30 mins, pH 6.8 phosphate buffer, 50 RPM",83.6%
same,% Dissolution,"[5]; 45 mins, pH 6.8 phosphate buffer, 50 RPM",86.3%
same,% Dissolution,"[5]; 60 mins, pH 6.8 phosphate buffer, 50 RPM",88.8%
same,% Dissolution,"[5]; 120 mins, pH 6.8 phosphate buffer, 150 RPM for 2nd hour",92.9%
same,dissolution rate (comparison of forms),"[5]; pH 6.8 phosphate buffer, capsules",dissolved considerably faster

# — patent publication US8614227B2, “Salt and solvates of a tetrahydroisoquinoline derivative” (Spinifex Pharmaceuticals Pty Ltd, priority 2010, dated 2013)
